Laboratory results published in US20030070691A1, “Biocide formation via ozonation” (priority 2000, published 2003).
Values joined by “and” are separate entries in the source; they are usually repeats but may differ in a detail not shown here. Identical values can stand only once. Like-named read-outs stand apart in the source and are kept apart here.

Assays:
[1] = tested on: Enterococcus faecium (Gram positive); test: Biocidal test on dried cells on glass slides; assay type: cell-based
Description: (§1) 0.1 milliliters of a 3×10^6 cfu/mL solution of bacteria cells harvested from a mid-log phase culture were placed on a glass microscope slide. The solution was allowed to dry for 2 hours leaving only cells on the surface. The slides were treated by immersing them in 10 mL of either: (i) sterile water; (ii) 10% ethanol in water; (iii) 10% ozonated ethanol in water; or (iv) 1% ozonated ethanol in water for either 5 or 20 seconds. Immediately after treatment the slides were removed from solution and immersed in 3-mL of a sterile saline solution and ultrasonicated for 10 minutes to dislodge the cells from the slide. The recovered cells were diluted, plated, and incubated at 37° C. overnight and colonies were counted to determine the number of survivors per slide. Initial recovery was determined using the above procedure but the treatment step was omitted.

[2] = tested on: Klebsiella pneumoniae (Gram negative); test: Biocidal test on dried cells on glass slides; assay type: cell-based
Description: as §1

[3] = at 20° C.; Handbook of Chemistry and Physics; cited from earlier work
Bacillus subtilis spores = test: Bacillus subtilis spore carrier disinfection test; assay type: cell-based; conditions: 30 minutes contact
Description: Preparation of carriers. In each of the following examples, the disinfection solutions were evaluated using spores of Bacillus subtilis. Spores were placed onto glass carriers formed by cutting microscope slides in half lengthways. Slides were placed in a culture tube that was capped and sterilized prior to inoculation with spores. A total of 0.1 mL of a spore suspension containing 10% bovine serum albumin by weight was placed onto a small area near one end of the slide. Approximately 20 μL (microliters) of spore suspension was added at a time for 5 times, allowing each 20μL amount to dry between additions. Heat drying was performed by briefly holding the slide over a flame. The heat-fixed culture was stored in the refrigerator until needed for up to, but no longer than, 5 days.
Disinfection of carriers. In the following examples, three vials were prepared, each containing 200 mL of the disinfectant composition to be evaluated. One spore carrier was placed into each vial. The spore carriers were held in the disinfection solutions for 30 minutes. After contacting was complete, the carriers were removed from the disinfection solutions using forceps and rinsed with sterile saline.
Spore recovery and enumeration. After rinsing, each of the slides was placed in a sterile tube containing 2 mL of saline. […] Invert plates were incubated at 37° C. and counted after 24 hours. […]

[4] = Dissolved ozone concentration by indigo colorimetric method; assay type: physicochemical; conditions: for dissolved ozone concentration: ozonated 5 minutes, 10 wt % ozone gas
Description: Solutions containing varying amounts of acetic acid were saturated with ozone. Solutions were prepared containing 50%, 75%, 90%, 95%, and 99% by volume acetic acid in water. In separate experiments, 100 mL of the above solutions were placed in 250 mL round bottom flasks fitted with a ground glass top. The top contained two fittings that permitted gas flow in through one fitting and gas flow out through the other. A mixture of ozone and oxygen was delivered from Lynntech's Model 124 Electrochemical Ozone generator to the solution through a stainless steel gas diffusing stone. The flow rate was approximately 1,000 mL of gas per minute, and the concentration of ozone was 10% by weight. The solutions were ozonated for 5 minutes and the concentration of dissolved ozone was determined by the indigo calorimetric method. An additional solution of 100 mL of deionized water and a solution of 100 mL of glacial acetic acid were also ozonated.
The concentration of dissolved ozone was determined by the indigo colorimetric method. An indigo stock solution was prepared by adding 500 mL of deionized water and 1 mL of phosphoric acid to a 1 L volumetric flask. 770 mg of potassium indigo trisulfonate was added to the flask, and stirring was continued until the dye was completely dissolved. The flask was filled to the mark with deionized water. A working indigo solution was prepared by adding 20 mL of indigo stock solution, 10 g of sodium dihydrogen phosphate (NaH2PO4), and 7 mL of concentrated phosphoric acid to a 1 L volumetric flask. The flask was filled to the mark with deionized water. The concentration of ozone in solution was determined by adding an aliquot of ozonated solution (typically 30 μL) to 3 mL of working indigo solution in a 1 cm path-length quartz cuvette. The cuvette was capped with a piece of Parafilm® (American National Can Company, Chicago, Ill.) and inverted a few times to mix the solutions. As a blank, the same volume the equivalent non-ozonated solution was added to 3 mL of working indigo solution in a matched cuvette and mixed. […] The absorbance at 600 nm was measured to provide the difference in absorbance between the blank and the sample. […]
where ΔA is the difference in absorbance between the sample and the blank, b is the path-length of the cuvette, Vw is the volume of working indigo solution, Vs is the volume of sample, and f is 0.42. f is based on a sensitivity factor of 20,000/cm for the change in absorbance at 600 nm per mole of ozone added per liter. […]
200 mL of 81% acetic acid by volume (in DI water) water was ozonated in a glass flask. […] At the same time a liquid sample was withdrawn from the beaker and its ozone concentration measured by the method described above. […]

[5] = neutral aqueous solution, cited from earlier work
[6] = Stability of ozonated ethanol solutions over 72 hours; assay type: physicochemical; conditions: ethanol (99 vol. %) ozonated 4 hours at 22° C.; 72-hour period
Description: The first step was the titration of hydrogen peroxide with ceric sulfate. A small amount of the peracetic acid solution (0.25 mL) was placed in 100 mL of ice-cold 1 N H2SO4 to which was also added three drops of ferroin indicator (Aldrich Chemical Company, Milwaukee, Wis.). The faint pink colored solution was then titrated with 0.1 M Ce(SO4)2 until the colorless endpoint was reached. Because cerium(IV) has a higher oxidation potential than hydrogen peroxide, hydrogen peroxide was oxidized to protons and molecular oxygen according the stoichiometry shown in the following reaction:
5 mL of 0.18 M KI was added to the solution and the mixture was stirred for 30 seconds. The solution was then placed in the dark for 30 minutes. After the 30-minute reaction time, the solution was yellowish brown and the color was proportional to the amount of peracetic acid originally present in the solution. The brown color was produced by oxidation of the colorless iodide anion (I^−) to the brown-colored iodine (I2) molecule by peracetic acid as shown in the following reaction: […]
Experiments were done to determine the stability of ozonated ethanol solutions over a 72-hour period. Ethanol (99 vol. %) was ozonated for 4 hours at 22° C. and the amount of AMP and peracetic acid was measured as a function of time over the next three days. […]

[7] = 5-second contact time, Log10 Start 4.9, Table 4
[8] = 20-second contact time, Log10 Start 5.4, Table 3
[9] = 20-second contact time, Log10 Start 7.4, Table 7
[10] = 5-second contact time, Log10 Start 5.3, Table 6
[11] = 20-second contact time, Log10 Start 4.8, Table 5
[12] = 20-second contact time, Log10 Start 6.3, Table 8

With `CCO` [10 vol. % Ethanol in Water (control), Ethanol] the “Log10 Recovered” value [1, 7] was 4.3 Log10, the “Log10 Reduction” value [1, 7] was 0.6 Log10 and the “Log10 Recovered” value [1, 8] was 5.2 Log10. The “Log10 Reduction” value [1, 8] was 0.2 Log10, the “Log10 Recovered” value [1, 9] was 4.5 Log10 and the “Log10 Reduction” value [1, 9] was 2.9 Log10. The “Log10 Recovered” value [2, 10] was 3.3 Log10, the “Log10 Reduction” value [2, 10] was 2.0 Log10 and the “Log10 Recovered” value [2, 11] was 4.3 Log10. The “Log10 Reduction” value [2, 11] was 0.5 Log10, the “Log10 Recovered” value [2, 12] was 6.4 Log10 and the “Log10 Reduction” value [2, 12] was −0.1 Log10.
In the case of `CCCC(=O)O` [butyric acid], the published ionization constant [3] is listed as 4.81.
In the case of `CC(=O)O` [non-ozonated 81% acetic acid, acetic acid], the “log reduction in viable spores, best achieved” value (Bacillus subtilis spores; Example 11) is reported as ≤ 2.87 log and the “sporicidal / disinfection activity in words” value (Bacillus subtilis spores; glass carriers, spores in 10% bovine serum albumin) is reported as “relatively ineffective”.
In the case of `O=[O+][O-]` [ozone], the “initial ozone concentration at the time the spore carriers were immersed” value ([4]; in 81% acetic acid ozonated 10 minutes) is reported as 125 ppm and 175 ppm, the dissolved ozone concentration ([4]; in DI water) is reported as “about 30 ppm” and the initial ozone concentration ([4]; in ozonated DI water, Example 11) is reported as ≤ 31 ppm. The dissolved ozone concentration ([4]; in pure acetic acid) was “greater than 400 ppm”, the “Ozone Concentration (solubility)” value ([5]; 0° C.) was 35 (ppm) and the “Ozone Concentration (solubility)” value ([5]; 20° C.) was 21 ppm. The “Ozone Concentration (solubility)” value ([5]; 40° C.) was 4 ppm and the “Ozone Concentration (solubility)” value ([5]; 60° C.) was 0 ppm.
For `CC(=O)OO` [peracetic acid], the “concentration in solution over time” value [6] was “constant”.
In the case of acetaldehyde monoperacetate [AMP], the “concentration in solution over time” value [6] is reported as “decreases considerably”.
